Results taken from patent US20250353873A1, “COMPOUNDS AND METHODS FOR MODULATING APOE EXPRESSION” (Ionis Pharmaceuticals, Inc., priority 2024, published 2025).
Strand notation (5' to 3'): a small letter for the sugar, then the base; units joined by * are phosphorothioate-linked, units joined directly phosphodiester-linked; [ ] holds rarer units or linkages, { } end groups; capitals alone tell only the bases. [ms] = mesyl phosphoramidate linkage; e = 2'-O-(2-methoxyethyl) (MOE); [5mC] = 5-methylcytosine; d = 2'-deoxy (DNA)

Tested on: human APOE RNA
Assay: Dose-dependent inhibition of human APOE RNA in HepG2 cells, electroporation, 24 hours (Example 6)
Format: cell-based
Outline: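 IC50 derived from APOE RNA levels, given as percent of untreated control after GAPDH normalization (probe sets RTS3073 and RTS104). Oligonucleotides were delivered at multiple concentrations by electroporation into HepG2 cells seeded at 50,000 per well.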

1693105: 6-10-4 MOE gapmer CTTGGTGAATCTTTATTAAA, linkages sosssszzzssssszssss (e[5mC]*eTeT*eG*eG*eT*dG[ms]dA[ms]dA[ms]dT*d[5mC]*dT*dT*dT*dA[ms]dT*eT*eA*eA*eA) [compound 1693105]
IC50: 1.1 µM | APOE RNA (% UTC) (5 nM): 117 % UTC | APOE RNA (% UTC) (13 nM): 104 % UTC | APOE RNA (% UTC) (33 nM): 118 % UTC | APOE RNA (% UTC) (82 nM): 91 % UTC | APOE RNA (% UTC) (205 nM): 101 % UTC | APOE RNA (% UTC) (512 nM): 59 % UTC | APOE RNA (% UTC) (1,280 nM): 43 % UTC | APOE RNA (% UTC) (3,200 nM): 23 % UTC | APOE RNA (% UTC) (8,000 nM): 21 % UTC | APOE RNA (% UTC) (20,000 nM): 6 % UTC
